Earlier results as cited in patent publication US11135214B2, “Methods for enhancing the bio availability and exposure of a voltage-gated potassium channel opener” (priority 2018, dated 2021).

How the values were obtained:
[1] = tested on: neural membrane excitability; settings: Ziemann et al. 2015; Ossemann et al. 2016; cited from earlier work
[2] = Prescott and Evans 2014; cited from earlier work
[3] = FDA Approved Labeling Text for Potiga; Harris and Murphy 2011; cited from earlier work
[4] = tested on: TEP components; settings: TMS-EEG, Premoli et al. 2016; cited from earlier work

Question: Which “motor threshold (at rest and under active muscular contraction)” value (shortened to “motor threshold”) [1] does the source give for `CCOC(=O)Nc1ccc(NCc2ccc(F)cc2)cc1N` [retigabine] here?
Answer: increased

Question: What about the “black-box warnings after long term use” value [2] of the same compound?
Answer: discoloration of skin, lips, nails and retinal pigmentary changes

Question: What about the “food effect on bioavailability and exposure after oral administration” value [3] of the same compound?
Answer: lack of food effect

Question: For `CC[C@@H](C(N)=O)N1CCCC1=O` [levetiracetam], which P180 component [4] is on record?
Answer: suppressed

Question: What about the “amplitude of the N45” value [4] of the same compound?
Answer: increased

Question: With `Nc1nnc(-c2cccc(Cl)c2Cl)c(N)n1` [lamotrigine] as the compound, how does the “motor threshold” value [1] read?
Answer: increased

Question: And the P180 component [4]?
Answer: suppressed

Question: What about the “amplitude of the N45” value [4] of the same compound?
Answer: increased

Question: With `NC(=O)N1c2ccccc2C=Cc2ccccc21` [carbamazepine] as the compound, how does the “motor threshold” value [1] read?
Answer: increased
